In patent US20240124410A1, “SMALL MOLECULES AND THEIR USE AS MALT1 INHIBITORS” (University of Pittsburgh - Of the Commonwealth System of …, priority 2021, published 2024):

Legend:
OPRM1 = molecular target: T1, OPRM1 (Homo sapiens, UniProt P35372); assay: Eurofins SAFETYscan 78-target panel, off-target effects, OPRM1; assay type: biochemical; conditions: antagonist / blocker / inhibitor mode
T1 construct: Eurofins
Procedure: (§1) FIG. 9. Table summarizing the Eurofins analysis of potential off-target effects of M1i-124. […] values above 10 μM are generally considered to be acceptable. FIG. 10. Representative hematoxylin and eosin (H&E) staining of organ sections (lung, heart, kidney, liver and adrenal) from control and M1i-124 treated mice described in FIG. 6.
(§2) Studies were performed using the services of Touchstone Biosciences and Eurofins Pharma Discovery Services. […] All blood samples (30-50 ul per sample) were taken via tail vein at 5, 15, and 30 minutes, and 1, 2, 4, 6, 8, and 24 hours after dosing. Blood samples are collected in Greiner MiniCollect K2 EDTA tubes, placed on ice, and within 30 minutes, centrifuged at 15,000 g for 5 minutes to obtain plasma samples. All plasma samples are stored at −70° C. until analysis. Plasma samples were prepared for analysis by LC-MS/MS, and key PK parameters, including terminal half-life (t 112), initial plasma concentration (C0), area under the plasma concentration vs. time curve (AUC), volume of distribution at steady-state (Vss), total plasma clearance (CLp), and mean residence time (MRT), were measured.
(§3) Assay details are available through Eurofins.

DRD1 = molecular target: T2, DRD1 (Homo sapiens, UniProt P21728); assay: Eurofins SAFETYscan 78-target panel, off-target effects, DRD1; assay type: biochemical; conditions: antagonist / blocker / inhibitor mode
T2 construct: Eurofins
T2 sequence (P21728 whole entry): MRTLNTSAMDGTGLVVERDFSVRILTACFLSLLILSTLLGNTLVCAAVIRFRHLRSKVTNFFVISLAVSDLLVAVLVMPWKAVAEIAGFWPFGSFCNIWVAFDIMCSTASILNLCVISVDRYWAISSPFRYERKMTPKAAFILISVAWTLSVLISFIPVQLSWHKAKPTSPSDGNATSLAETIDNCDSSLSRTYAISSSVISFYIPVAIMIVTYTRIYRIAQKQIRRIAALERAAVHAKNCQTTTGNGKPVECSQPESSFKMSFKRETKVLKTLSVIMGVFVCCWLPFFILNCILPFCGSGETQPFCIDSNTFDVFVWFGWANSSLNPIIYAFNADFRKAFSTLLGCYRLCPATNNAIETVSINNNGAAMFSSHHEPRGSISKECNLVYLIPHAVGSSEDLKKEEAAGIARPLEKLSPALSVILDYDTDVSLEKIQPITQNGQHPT
Procedure: as §1, §2, §3

HRH2 = molecular target: T3, HRH2 (Homo sapiens, UniProt P25021); assay: Eurofins SAFETYscan 78-target panel, off-target effects, HRH2; assay type: biochemical; conditions: antagonist / blocker / inhibitor mode
T3 construct: Eurofins
T3 sequence (P25021 whole entry): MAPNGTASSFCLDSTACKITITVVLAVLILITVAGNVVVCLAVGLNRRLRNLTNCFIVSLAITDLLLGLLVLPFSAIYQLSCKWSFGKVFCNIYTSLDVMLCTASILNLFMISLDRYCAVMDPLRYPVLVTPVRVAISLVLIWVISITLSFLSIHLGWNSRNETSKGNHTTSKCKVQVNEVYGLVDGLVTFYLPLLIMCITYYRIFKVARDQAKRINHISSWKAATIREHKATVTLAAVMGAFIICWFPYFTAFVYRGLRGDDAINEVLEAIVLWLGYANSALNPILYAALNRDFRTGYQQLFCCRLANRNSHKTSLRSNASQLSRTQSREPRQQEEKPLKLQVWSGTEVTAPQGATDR
Procedure: as §1, §2, §3

nAChR(a4/b2) = molecular target: T4, nAChR(a4/b2) (Homo sapiens, UniProt P17787+P43681); assay: Eurofins SAFETYscan 78-target panel, off-target effects, nAChR(a4/b2); assay type: biochemical; conditions: antagonist / blocker / inhibitor mode
T4 construct: Eurofins
T4 sequence (P43681 29-627 limits assumed): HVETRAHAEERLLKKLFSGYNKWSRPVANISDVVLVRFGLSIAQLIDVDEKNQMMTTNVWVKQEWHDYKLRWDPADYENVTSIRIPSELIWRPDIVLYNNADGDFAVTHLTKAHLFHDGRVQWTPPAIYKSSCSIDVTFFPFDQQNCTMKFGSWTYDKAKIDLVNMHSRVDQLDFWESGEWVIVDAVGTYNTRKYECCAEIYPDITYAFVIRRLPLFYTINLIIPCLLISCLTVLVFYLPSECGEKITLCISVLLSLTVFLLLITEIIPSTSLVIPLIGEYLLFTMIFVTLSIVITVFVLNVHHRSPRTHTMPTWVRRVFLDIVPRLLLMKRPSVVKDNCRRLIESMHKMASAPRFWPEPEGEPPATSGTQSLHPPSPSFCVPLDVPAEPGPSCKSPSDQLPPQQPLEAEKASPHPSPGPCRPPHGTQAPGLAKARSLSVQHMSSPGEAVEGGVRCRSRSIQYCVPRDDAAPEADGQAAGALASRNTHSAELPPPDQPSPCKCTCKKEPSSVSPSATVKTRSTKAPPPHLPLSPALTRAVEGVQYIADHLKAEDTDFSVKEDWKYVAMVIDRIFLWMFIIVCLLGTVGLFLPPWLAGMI
T4 sequence (P17787 26-502): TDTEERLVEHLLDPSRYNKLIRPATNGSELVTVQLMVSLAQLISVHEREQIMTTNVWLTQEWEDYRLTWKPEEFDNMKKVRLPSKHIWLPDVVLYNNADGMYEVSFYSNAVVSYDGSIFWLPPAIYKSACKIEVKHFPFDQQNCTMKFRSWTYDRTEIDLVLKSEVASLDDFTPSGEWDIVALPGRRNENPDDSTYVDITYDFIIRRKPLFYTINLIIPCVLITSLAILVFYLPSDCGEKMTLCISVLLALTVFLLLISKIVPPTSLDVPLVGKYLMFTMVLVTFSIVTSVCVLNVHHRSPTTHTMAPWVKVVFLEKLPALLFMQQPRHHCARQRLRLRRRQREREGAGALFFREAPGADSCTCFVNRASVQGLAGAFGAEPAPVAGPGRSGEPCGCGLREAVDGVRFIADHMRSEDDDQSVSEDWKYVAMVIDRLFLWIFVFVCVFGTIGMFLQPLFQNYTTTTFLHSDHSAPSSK
Procedure: as §1, §2, §3

[1] = system: anti-CD3/CD28-induced phosphorylation of IKKα/β; assay: Phosphorylation of IKKα/β in Jurkat T cells (Western blot); assay type: cell-based; conditions: 20 hours pretreatment, anti-CD3/CD28 for 0-20 minutes
Procedure: (§4) The DLBCL cell lines, OCI-Ly1, OCI-Ly3, and OCI-Ly7, were provided by Dr. Mark Minden (University Health Network, Toronto, Ontario, Canada). TMD8 cells were provided by Dr. Louis Staudt (NCI, NIH). OCI-Ly1 and OCI-Ly7 cells were cultured in Iscove's Modified Dulbecco's Medium (IMDM) supplemented with 10% FBS. OCI-Ly3 cells were cultured in IMDM supplemented with 20% FBS. TMD8 and Jurkat T cells were cultured in RPMI1640 medium with 10% FBS. HEK293T cells were cultured in DMEM medium with 10% FBS. All media were supplemented with 100 U/ml penicillin streptomycin. Stimulation of Jurkat cells was conducted by adding 5 ng/ml of phorbol 12-myristatel3 acetate (PMA)(Sigma-Aldrich) and 1μM ionomycin (Calbiochem), or by adding 5-10 μL/mL of ImmunoCult Human CD3/CD28 ([…] Technologies).

TMD8 ABC-DLBCL cells = assay: Cell proliferation (cell count, trypan blue exclusion), TMD8; assay type: cell-based; conditions: TMD8, single dose of 1 μM, 12 days
Excerpt: Cell number was counted using the trypan blue dye exclusion method with Vi-CELL cell viability analyzer (Beckman Coulter) at days 7, 10, and 12 of treatment with compounds. Cell proliferation was specifically evaluated using the CellTrace Violet reagent (ThermoFisher Cat #C34571) which undergoes dilution with each round of cell division. 1.5×10^6 cells were washed twice in PBS and resuspended in 2 mls of PBS.

[2] = system: T cell receptor (TCR)-induced phosphorylation of ERK; assay: Phosphorylation of ERK in Jurkat T cells (Western blot); assay type: cell-based; conditions: 20 hours pretreatment, anti-CD3/CD28 for 0-20 minutes
Procedure: as §4

T1 sequence (P35372 whole entry): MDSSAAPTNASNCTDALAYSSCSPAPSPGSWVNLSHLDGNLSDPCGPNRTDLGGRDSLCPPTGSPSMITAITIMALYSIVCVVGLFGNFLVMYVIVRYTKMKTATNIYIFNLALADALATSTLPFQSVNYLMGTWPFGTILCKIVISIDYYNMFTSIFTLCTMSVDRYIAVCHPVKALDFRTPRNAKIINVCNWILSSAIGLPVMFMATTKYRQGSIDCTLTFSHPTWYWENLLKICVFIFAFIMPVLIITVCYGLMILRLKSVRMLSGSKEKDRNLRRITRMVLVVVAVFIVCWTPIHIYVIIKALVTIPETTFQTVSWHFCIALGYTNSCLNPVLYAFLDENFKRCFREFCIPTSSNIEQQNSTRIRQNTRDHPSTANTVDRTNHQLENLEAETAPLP

Row | Structure (SMILES) | IC50 (OPRM1) [µM] | IC50 (DRD1) [µM] | IC50 (HRH2) [µM] | IC50 (nAChR(a4/b2)) [µM] | Phosphorylation of IKKα/β (phospho-IKK/total IKK) [1] | Proliferation (TMD8 ABC-DLBCL cells) | Phosphorylation of ERK (phospho-ERK/total ERK) [2]
1 | O=S(=O)(NCc1ccc2c(c1)OCO2)c1ccc(Cc2ccc(S(=O)(=O)NCc3ccc4c(c3)OCO4)cc2)cc1 [M1i-124] | 3.7 | 1.9 | 2.3 | 4 | – | – | –
2 | COc1ccc(CNS(=O)(=O)c2ccc(Cc3ccc(S(=O)(=O)NCc4ccc(OC)cc4)cc3)cc2)cc1 [M1i-124d1] | – | – | – | – | leads to inhibition | inhibit the proliferation | Neither M1i-124 (F) or M1i-124d1 (G) inhibits
